Results taken from patent US8012963B2, “3,4-dihydro-2H-benzo[1,4]oxazine and thiazine derivatives as CETP inhibitors” (Janssen Pharmaceutica N.V., priority 2006, dated 2011).
“And” between values parts separate entries of the source, which are not always exact repeats. Equal values may be shown once.

Molecular target: T1, CETP (Homo sapiens, UniProt P11597)
T1 construct: from tissue; host or cells: human plasma from normal volunteers
T1 sequence (P11597 18-493): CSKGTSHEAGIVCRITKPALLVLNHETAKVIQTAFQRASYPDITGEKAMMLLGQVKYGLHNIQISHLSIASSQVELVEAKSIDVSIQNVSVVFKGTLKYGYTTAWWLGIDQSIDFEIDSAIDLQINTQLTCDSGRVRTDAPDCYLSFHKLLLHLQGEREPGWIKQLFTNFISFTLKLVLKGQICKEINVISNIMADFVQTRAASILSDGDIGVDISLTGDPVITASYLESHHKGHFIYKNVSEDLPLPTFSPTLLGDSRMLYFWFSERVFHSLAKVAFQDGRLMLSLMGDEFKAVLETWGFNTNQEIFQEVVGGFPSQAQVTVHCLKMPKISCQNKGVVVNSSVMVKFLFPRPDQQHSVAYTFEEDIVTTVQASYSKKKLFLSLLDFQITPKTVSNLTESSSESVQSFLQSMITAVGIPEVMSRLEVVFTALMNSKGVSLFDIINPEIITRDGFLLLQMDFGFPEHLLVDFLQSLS
Experiment: CETP in vitro assay ([3H]CE-HDL transfer, Amersham kit TRKQ7005; modified protocol in human plasma)
Format: biochemical
Conditions: multiple values = multiple measurements; for inhibition at 1 µM / % Inhibition @ 1 μM: 1 μM compound
Description: The CETP inhibitory activity of the compounds was determined using a commercially available kit from Amersham Biosciences (Catalog #TRKQ7005).
For the measurement of inhibitory activity in human plasma, a modified protocol (Connolly, D. T. et al., Biochemistry, 39 13870-13879, 2000) was used. Briefly, 80 μl of human plasma (obtained from normal volunteers), approximately 25 μg/ml (200) of [^3H]CE-HDL (Amersham Biosciences from kit TRKQ7005) and 1 μl of compound dissolved in DMSO was incubated for at least 4 hrs at 37° C. and non-specific transfer was determined by incubating a corresponding plate at 4° C. (blank). After the incubation period, 100 of a solution of 1% Dextralip 50/0.5M MgCl2, pH 7.4 was added, vortexed and incubated at room temperature for 10 min. The plate was then centrifuged for 30 min at 10° C. at 3000 rpm in a Sorvall RT6000B centrifuge. Fifty microliters of the supernatant was transferred to a Picoplate (Packard) containing 100 μl of Microscint 40 (Perkin Elmer) and mixed for 30 min using a plate mixer. The radioactivity was counted using a TopCount (Perkin Elmer) and the % control was determined in the samples using the following formula: % transfer relative to vehicle controls (% control)=[cpm blank-cpm test]/cpm blank/cpm control]×100. IC50s were calculated from plots of the % control versus compound concentration.
A variety of example compounds have been made and tested, with a range of in vitro results. Below, in Table 2, are representative compounds and the corresponding data; in some cases, where multiple IC50's are shown, multiple measurements were taken. Naturally, different compounds in Formula (I), (Ia), (Ib) and (Ic) may have not activities identical to any one compound below.

inhibition at 1 µM [%] | % Inhibition @ 1 μM | IC50 | SMILES
9 | – | – | CN(C)CCN1c2cccc(-c3cccc(OC(F)(F)F)c3)c2OCC1c1cccc(OC(F)(F)C(F)F)c1 (stereo not drawn) [Compound 28, Dimethyl-{2-[3-[3-(1,1,2,2-tetrafluoro-ethoxy)-phenyl]-8-(3-trifluoromethoxy-phenyl)-2,3-dihydro-benzo[1,4]oxazin-4-yl]-ethyl}-amine]
55 | 62% | 580 nM | O[C@@H](CN1c2cccc(-c3cc(C(F)(F)F)cc(C(F)(F)F)c3)c2OC[C@@H]1c1cccc(OC(F)(F)C(F)F)c1)C(F)(F)F [Compound 78, 4H-1,4-Benzoxazine-4-ethanol, 2,3-dihydro-3-[3-(1,1,2,2-tetrafluoroethoxy)phenyl]-8-[3,5-bis(trifluoromethyl)phenyl]-α-(trifluoromethyl)-, (3S,αS)—]
– | 55% and 56% | 490 nM | CCOc1cccc(C2COc3c(-c4cccc(OC(F)(F)F)c4)cccc3N2CC(O)C(F)(F)F)c1 (stereo not drawn) [Compound 17, 3-[3-(3-Ethoxy-phenyl)-8-(3-trifluoromethoxy-phenyl)-2,3-dihydro-benzo[1,4]oxazin-4-yl]-1,1,1-trifluoro-propan-2-ol]
– | 1% | – | OC(CN1c2cccc(-c3cccc(OC(F)(F)F)c3)c2OCC1c1ccccc1OC(F)(F)C(F)F)C(F)(F)F (stereo not drawn) [Compound 92, 1,1,1-Trifluoro-3-[3-[2-(1,1,2,2-tetrafluoro-ethoxy)-phenyl]-8-(3-trifluoromethoxy-phenyl)-2,3-dihydro-benzo[1,4]oxazin-4-yl]-propan-2-ol]
– | 20% | – | OC(CN1c2cccc(-c3cccc(OC(F)(F)F)c3)c2OCC1c1cccs1)C(F)(F)F (stereo not drawn) [Compound 103, 1,1,1-Trifluoro-3-[3-thiophen-2-yl-8-(3-trifluoromethoxy-phenyl)-2,3-dihydro-benzo[1,4]oxazin-4-yl]-propan-2-ol]
5 | – | – | CC(=O)CN1c2cccc(-c3cccc(OC(F)(F)F)c3)c2OC[C@@H]1c1cccc(OC(F)(F)C(F)F)c1 [Compound 38, 2-Propanone, 1-[(3S)-2,3-dihydro-3-[3-(1,1,2,2-tetrafluoroethoxy)phenyl]-8-[3-(trifluoromethoxy)phenyl]-4H-1,4-benzoxazin-4-yl]-]
– | 6% | – | COc1cccc(C2COc3c(-c4cccc(OC(F)(F)F)c4)cccc3N2CC(O)C(F)(F)F)c1 (stereo not drawn) [Compound 100, 1,1,1-Trifluoro-3-[3-(3-methoxy-phenyl)-8-(3-trifluoromethoxy-phenyl)-2,3-dihydro-benzo[1,4]oxazin-4-yl]-propan-2-ol]
2 | – | – | NCCN1c2cccc(-c3cccc(OC(F)(F)F)c3)c2OCC1c1cccc(OC(F)(F)C(F)F)c1 (stereo not drawn) [Compound 39, 2-[3-[3-(1,1,2,2-Tetrafluoro-ethoxy)-phenyl]-8-(3-trifluoromethoxy-phenyl)-2,3-dihydro-benzo[1,4]oxazin-4-yl]-ethylamine]
43 | 40% | 5000 nM | O[C@H](CN1c2cccc(-c3cc(C(F)(F)F)cc(C(F)(F)F)c3)c2OC[C@@H]1c1cccc(OC(F)(F)C(F)F)c1)C(F)(F)F [Compound 79, 4H-1,4-Benzoxazine-4-ethanol, 2,3-dihydro-3-[3-(1,1,2,2-tetrafluoroethoxy)phenyl]-8-[3,5-bis(trifluoromethyl)phenyl]-α-(trifluoromethyl)-, (3S,αR)—]
24 | – | – | CCN1c2cccc(-c3cccc(OC(F)(F)F)c3)c2OCC1c1cccc(OC(F)(F)C(F)F)c1 (stereo not drawn) [Compound 33, 4-Ethyl-3-[3-(1,1,2,2-tetrafluoro-ethoxy)-phenyl]-8-(3-trifluoromethoxy-phenyl)-3,4-dihydro-2H-benzo[1,4]oxazine]
– | 10% | – | C=CCC1COc2c(-c3cccc(OC(F)(F)F)c3)cccc2N1CC(O)C(F)(F)F (stereo not drawn) [Compound 50, 3-[3-Allyl-8-(3-trifluoromethoxy-phenyl)-2,3-dihydro-benzo[1,4]oxazin-4-yl]-1,1,1-trifluoro-propan-2-ol]
– | 2% | – | Cc1ccsc1C1COc2c(-c3cccc(OC(F)(F)F)c3)cccc2N1CC(O)C(F)(F)F (stereo not drawn) [Compound 86, 1,1,1-Trifluoro-3-[3-(3-methyl-thiophen-2-yl)-8-(3-trifluoromethoxy-phenyl)-2,3-dihydro-benzo[1,4]oxazin-4-yl]-propan-2-ol]
48 | – | 104 nM and 437 nM | OC(CN1c2cccc(-c3cccc(OC(F)(F)F)c3)c2OCC1c1ccc2c(c1)OC(F)(F)O2)C(F)(F)F (stereo not drawn) [Compound 13, 3-[3-(2,2-Difluoro-benzo[1,3]dioxol-5-yl)-8-(3-trifluoromethoxy-phenyl)-2,3-dihydro-benzo[1,4]oxazin-4-yl]-1,1,1-trifluoro-propan-2-ol]
0 | – | – | O=C(CN1c2cccc(-c3cccc(OC(F)(F)F)c3)c2OCC1c1ccc2c(c1)OC(F)(F)O2)C(F)(F)F (stereo not drawn) [Compound 19, 3-[3-(2,2-Difluoro-benzo[1,3]dioxol-5-yl)-8-(3-trifluoromethoxy-phenyl)-2,3-dihydro-benzo[1,4]oxazin-4-yl]-1,1,1-trifluoro-propan-2-one]
5 | – | – | O=C(CN1c2cccc(-c3cccc(OC(F)(F)F)c3)c2OC[C@@H]1c1cccc(OC(F)(F)C(F)F)c1)C(F)(F)F [Compound 37, 2-Propanone, 3-[(3S)-2,3-dihydro-3-[3-(1,1,2,2-tetrafluoroethoxy)phenyl]-8-[3-(trifluoromethoxy)phenyl]-4H-1,4-benzoxazin-4-yl]-1,1,1-trifluoro-]
– | 2% | – | OC(CN1c2cccc(-c3cccc(OC(F)(F)F)c3)c2OCC1c1cccc(C(F)(F)F)c1)C(F)(F)F (stereo not drawn) [Compound 71, 1,1,1-Trifluoro-3-[8-(3-trifluoromethoxy-phenyl)-3-(3-trifluoromethyl-phenyl)-2,3-dihydro-benzo[1,4]oxazin-4-yl]-propan-2-ol]
34 | 39% | > 2920 nM | O[C@@H](CN1c2cccc(-c3cccc(OC(F)(F)F)c3)c2SC[C@H]1c1cccc(OC(F)(F)C(F)F)c1)C(F)(F)F [Compound 108]
– | 0% | – | C=CCC1COc2c(-c3cccc(OC(F)(F)F)c3)cccc2N1CC(O)C(F)(F)F (stereo not drawn) [Compound 51, 3-[3-Allyl-8-(3-trifluoromethoxy-phenyl)-2,3-dihydro-benzo[1,4]oxazin-4-yl]-1,1,1-trifluoro-propan-2-ol]
29 | – | – | COCCCN1c2cccc(-c3cccc(OC(F)(F)F)c3)c2OCC1c1cccc(OC(F)(F)C(F)F)c1 (stereo not drawn) [Compound 27, 4-(3-Methoxy-propyl)-3-[3-(1,1,2,2-tetrafluoro-ethoxy)-phenyl]-8-(3-trifluoromethoxy-phenyl)-3,4-dihydro-2H-benzo[1,4]oxazine]
– | 104% and 79% and 107% | – | OC(CN1c2cccc(-c3cccc(F)c3)c2OCC1c1cccc(OC(F)(F)C(F)F)c1)C(F)(F)F (single isomer, unassigned) [Compound 66, 1,1,1-Trifluoro-3-{8-(3-fluoro-phenyl)-3-[3-(1,1,2,2-tetrafluoro-ethoxy)-phenyl]-2,3-dihydro-benzo[1,4]oxazin-4-yl}-propan-2-ol]

SMILES | inhibition at 1 µM [%] | % Inhibition @ 1 μM | IC50
CC(C)(C)[Si](C)(C)OCCCN1c2cccc(-c3cccc(OC(F)(F)F)c3)c2OCC1c1cccc(OC(F)(F)C(F)F)c1 (stereo not drawn) [Compound 25, 4-[3-(tert-Butyl-dimethyl-silanyloxy)-propyl]-3-[3-(1,1,2,2-tetrafluoro-ethoxy)-phenyl]-8-(3-trifluoromethoxy-phenyl)-3,4-dihydro-2H-benzo[1,4]oxazine] | 13 | – | –
CC(C)(C)[Si](C)(C)OCCN1c2cccc(-c3cccc(OC(F)(F)F)c3)c2OCC1c1cccc(OC(F)(F)C(F)F)c1 (stereo not drawn) [Compound 22, 4-[2-(tert-Butyl-dimethyl-silanyloxy)-ethyl]-3-[3-(1,1,2,2-tetrafluoro-ethoxy)-phenyl]-8-(3-trifluoromethoxy-phenyl)-3,4-dihydro-2H-benzo[1,4]oxazine] | 13 | – | –
O[C@@H](CN1c2cccc(-c3cc(F)c(F)c(F)c3)c2OC[C@@H]1c1cccc(OC(F)(F)C(F)F)c1)C(F)(F)F [Compound 76, 4H-1,4-Benzoxazine-4-ethanol, 2,3-dihydro-3-[3-(1,1,2,2-tetrafluoroethoxy)phenyl]-8-[3,4,5-trifluoro-phenyl]-α-(trifluoromethyl)-, (3S,αS)—] | 106 | 101% | 41 nM
